The numbers were not newly measured in patent US20040167145A1, “Active ingredient combination for the pharmacological therapy of nicotine dependence” (priority 2001, published 2004), which cites them from elsewhere.

The conditions of this data set: clinical studies; compared with 8% for placebo.

Each structure is given as a SMILES string.

As to `CC(NC(C)(C)C)C(=O)c1cccc(Cl)c1` (stereo not shown) [bupropion], the 1-year abstinence rate is reported as 28%.
